Experimental data reported in patent US8309578B2, “Bicyclic pyrazole and isoxazole derivatives as antitumor and antineurodegenerative agents” (Nerviano Medical Sciences S.r.l., priority 2008, dated 2012).
pIC50: −log10 of the molar value.

System: Her2 protein levels in BT474 breast cancer cells
Test: Her2 degradation in BT474 breast cancer cells (immunocytochemistry, ArrayScan vTi), marker for Hsp90 inhibition
Assay type: cell-based
Conditions: Homo sapiens, BT-474, 8 h treatment, concentration at which cellular Her2 signal is diminished by 50% vs untreated controls
Procedure: The potency of the compounds of formula (I) were evaluated by measuring the Her2 degradation as a marker for Hsp90 inhibition.
Hsp90 is a key component of a chaperone machinery that catalyzes the folding and quality control of several proteins. Its inhibition impairs the capacity to fold or stabilize its client proteins, leading to the proteosomal dependent degradation of these unfolded proteins. At the moment there is an increasing number (>100) of reported Hsp90 clients, but one of the most frequently way to detect Hsp90 chaperone inhibition is the detection of Her2 protein levels after short time treatment (usually 8-24 h), in order to be sure about the specificity of this effect.
Cellular activity of Hsp90 inhibitors was assessed by measuring the induced loss of Her2 protein levels in BT474 breast cancer cells (ATCC #HTB-20). Cellular Her2 levels were measured by immunocytochemistry, and quantified using an ArrayScan vTi instrument (Cellomics Thermo Scientific).
Studies were performed as follows: 5000 cells/well are seeded in 96 well plates (Perkin Elmer) in DMEM/5% FCS and incubated for 48 h at 37° C., under 5% CO2.
Medium is then replaced with fresh medium containing test compounds at the required concentration. Concentration curves are prepared in DMEM/10% FCS from compound stocks in DMSO, and final DMSO concentration is 0.1% (v/v). Duplicate wells for each concentration point are prepared, with a typical highest compound concentration of 30 μM. After addition of compound, plates are returned to the incubator for 8 h, then fixed by replacing medium with PBS containing 3.7% paraformaldehyde solution. Plates are incubated for 20 minutes at room temperature, then wells are washed in PBS and cells permiabilised by incubating with PBS containing 0, 3% Triton X-100 for 15 minutes at room temperature. Non-specific binding sites are blocked by incubating wells for 1 h in PBS containing 3% (w/v) BSA. Wells are then incubated for 1 h at room temperature in PBS containing anti Her2 mouse monoclonal (Anti-c-ErbB2/c-Neu, Mouse mAb 3B5, Calbiochem Cat No OP15) diluted 1:100 in 1% (w/v) BSA. After 3 washes in PBS, wells are incubated in PBS (w/v) 1% BSA containing a 2 μg/ml of Cy2-conjugated Goat anti mouse secondary antibody (Amersham Pharmacia Biothech cat. No PA 42002) (Absorption maximum 489 nm fluorescence maximum 506 nm) and 1 μg/ml of DAPI (Absorption maximum 359 nm fluorescence maximum 461 nm) (4′,6-Diamidino-2-phenylindole, dilactate) (Sigma cat. No D 9564) a high sensitivity dye to detect nucleid acid for nuclear staining. After washing a further 3 times in PBS, cellular Her2 immunoreactivity is assessed using the ArrayScan vTi instrument, with a Zeiss 10×0.5 N.A. objective, and applying the Cytotoxity.V3 algorithm (Cellomics/Thermo Fisher) with a XF100 filter. At least 10 fields, corresponding to at least 900 cells, are read for each well. IC50 values represent the compound concentration at which cellular Her2 signal is diminished by 50% compared with untreated controls.
The following formula is used: IC50=Bottom+(Top−Bottom)/(1+10^((Log EC50−X)));
X is the logarithm of concentration. IC50 is the response; IC50 starts at Bottom and goes to Top with a sigmoid shape. The compounds of formula (I) tested as described above, result to induce the degradation of Her2 protein.

| Structure (SMILES) | pIC50 |
| --- | --- |
| COc1ccc(CN2CCc3[nH]nc(-c4cc(Cl)c(O)cc4O)c3C2)cc1OC [compound 40, 4-chloro-6-[5-(3,4-dimethoxybenzyl)-4,5,6,7-tetrahydro-1H-pyrazolo[4,3-c]pyridin-3-yl]benzene-1,3-diol] | 5.40 |
| Oc1cc(O)c(-c2onc3c2CN(Cc2ccc(-n4ccnc4)cc2)CC3)cc1Cl [compound 67, 4-chloro-6-{5-[4-(1H-imidazol-1-yl)benzyl]-4,5,6,7-tetrahydroisoxazolo[4,3-c]pyridin-3-yl}benzene-1,3-diol] | 5.06 |
| Oc1cc(O)c(-c2n[nH]c3c2CN(Cc2ccc(-n4ccnn4)cc2)CC3)cc1Cl [compound 49, 4-chloro-6-{5-[4-(1H-1,2,3-triazol-1-yl)benzyl]-4,5,6,7-tetrahydro-1H-pyrazolo[4,3-c]pyridin-3-yl}benzene-1,3-diol] | 5.47 |
| O=C(C1CCC2(CC1)OCCO2)N1CCc2n[nH]c(-c3cc(Cl)c(O)cc3O)c2C1 [compound 14, [3-(5-chloro-2,4-dihydroxyphenyl)-1,4,6,7-tetrahydro-5H-pyrazolo[4,3-c]pyridin-5-yl](1,4-dioxaspiro[4.5]dec-8-yl)methanone] | 5.96 |
| O=C(c1ccc(-n2ccnc2)cc1)N1CCc2[nH]nc(-c3cc(Cl)c(O)cc3O)c2C1 [compound 16, [3-(5-chloro-2,4-dihydroxyphenyl)-1,4,6,7-tetrahydro-5H-pyrazolo[4,3-c]pyridin-5-yl][4-(1H-imidazol-1-yl)phenyl]methanone] | 5.08 |
| CO[C@H]1CC[C@H](C(=O)N2CCc3[nH]nc(-c4cc(Cl)c(O)cc4O)c3C2)CC1 [compound 17, [3-(5-chloro-2,4-dihydroxyphenyl)-1,4,6,7-tetrahydro-5H-pyrazolo[4,3-c]pyridin-5-yl](trans-4-methoxycyclohexyl)methanone] | 5.52 |
